What was measured:
[1] = target: T1, hM2 receptor (CHO-K1 cells) (Homo sapiens, UniProt P08172); assay: Blockade of agonist-mediated [35S]GTPγS binding; type: biochemical; conditions: CHO-K1 cells expressing the hM2 receptor; this or a similar assay; read-out: Ki value for blockade of oxotremorine-stimulated [35S]GTPγS binding
T1 construct: expressed in transfected cells; host or cells: CHO-K1 cells
T1 sequence (P08172 1-466): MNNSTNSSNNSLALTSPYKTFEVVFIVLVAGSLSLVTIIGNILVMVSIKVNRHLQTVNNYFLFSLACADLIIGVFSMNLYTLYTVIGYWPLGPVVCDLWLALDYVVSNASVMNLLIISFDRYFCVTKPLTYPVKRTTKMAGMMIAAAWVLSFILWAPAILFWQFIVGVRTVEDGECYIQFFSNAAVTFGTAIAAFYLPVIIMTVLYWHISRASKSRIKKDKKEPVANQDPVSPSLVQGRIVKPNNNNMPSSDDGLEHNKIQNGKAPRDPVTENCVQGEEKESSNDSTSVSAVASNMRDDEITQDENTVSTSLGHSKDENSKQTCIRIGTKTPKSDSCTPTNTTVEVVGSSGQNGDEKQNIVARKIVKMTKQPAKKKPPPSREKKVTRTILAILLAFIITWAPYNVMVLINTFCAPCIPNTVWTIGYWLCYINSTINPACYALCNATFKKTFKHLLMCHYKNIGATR
Procedure: In a second functional assay, the functional potency of test compounds can be determined by measuring the ability of the compounds to block oxotremorine-stimulated [^35S]GTPγS binding in CHO-K1 cells expressing the hM2 receptor.
At the time of use, frozen membranes were thawed and then diluted in assay buffer with a final target tissue concentration of 5-10 μg protein per well. The membranes were briefly homogenized using a Polytron PT-2100 tissue disrupter and then added to the assay plates. The EC90 value (effective concentration for 90% maximal response) for stimulation of [^35S]GTPγS binding by the agonist oxotremorine was determined in each experiment.
The assay plates were then incubated at 37° C. for 60 minutes. The assay plates were filtered over 1% BSA-pretreated GF/B filters using a PerkinElmer 96-well harvester. The plates were rinsed with ice-cold wash buffer for 3×3 seconds and then air or vacuum dried. Microscint-20 scintillation liquid (50 μL) was added to each well, and each plate was sealed and radioactivity counted on a topcounter (PerkinElmer). Data were analyzed by nonlinear regression analysis with the GraphPad Prism Software package (GraphPad Software, Inc., San Diego, Calif.) using the non-linear regression, one-site competition equation. […]

[2] = target: T1, hM2 receptor (CHO-K1 cells); assay: Blockade of agonist-mediated inhibition of cAMP accumulation; type: cell-based; conditions: CHO-K1 cells expressing the hM2 receptor; this or a similar assay; read-out: Ki value for blockade of oxotremorine-inhibition of forskolin-mediated cAMP accumulation
Procedure: In this assay, the functional potency of a test compound was determined by measuring the ability of the test compound to block oxotremorine-inhibition of forskolin-mediated cAMP accumulation in CHO-K1 cells expressing the hM2 receptor. cAMP assays were performed in a radioimmunoassay format using the Flashplate Adenylyl Cyclase Activation Assay System with ^125I-cAMP (NEN SMP004B, PerkinElmer Life Sciences Inc., Boston, Mass.), according to the manufacturer's instructions.
Cells were rinsed once with dPBS and lifted with Trypsin-EDTA solution (0.05% trypsin/0.53 mM EDTA) as described in the Cell Culture and Membrane Preparation section above. The detached cells were washed twice by centrifugation at 650×g for five minutes in 50 mLs dPBS. The cell pellet was then re-suspended in 10 mL dPBS, and the cells were counted with a Coulter ZI Dual Particle Counter (Beckman Coulter, Fullerton, Calif.). […]
To measure the ability of a test compound to block oxotremorine-inhibited AC activity, 25 μL forskolin and oxotremorine (25 μM and 5 μM final concentrations, respectively, diluted in dPBS) 25 μL diluted test compound, and 50 μL cells were added to remaining assay wells. […] Plates were sealed, incubated overnight at room temperature and counted the next morning on a PerkinElmer TopCount liquid scintillation counter (PerkinElmer Inc., Wellesley, Mass.). […]

## O=C(CCN1CCC(OC(=O)Nc2ccccc2-c2ccccc2)CC1)NCCCCCNCc1ccc(O)cc1 [compound of formula I, biphenyl-2-ylcarbamic acid 1-{2-[5-(4-hydroxybenzylamino)pentylcarbamoyl]ethyl}piperidin-4-yl ester]
[1]
  Ki: < 10 nM
[2]
  Ki: < 10 nM
